The nature of data set [1]: Stability at ambient conditions (cGMP material). Type of data set: physicochemical. The source says: AR-12 was initially developed by Arno Therapeutics (Arno) in 2008 for an oncology indication. In support of this oncology program, Arno initiated an Investigational New Drug (IND) enabling toxicology program, which included standard Good Laboratory Practice (GLP) tests (e. g. genotoxicity), a battery of safety pharmacology studies, and 28-day general toxicity assessments performed in rats and dogs. Before Arno's involvement, the National Cancer Institute had generated preclinical ADME (i. e., absorption, distribution, metabolism, and excretion) and toxicology data in the mouse model as part of the Rapid Access to Intervention Development (RAID) program. AR-12 synthesis was optimized and scaled-up to approximately 50 kg (purity >99.5%; stability ≥24 months at ambient conditions) under Current Good Manufacturing Practices (cGMP) conditions in anticipation of continued clinical development in the oncology setting.

The subject of a further data set is Ng. Nature of the data set: Antimicrobial disk diffusion assays. More on the design: species or system Neisseria gonorrhoeae. The note with it: no human cells. An excerpt:
This effect was specific to infection of human cells in that AR-12 was not effective against the Ng by antimicrobial disk diffusion assays, which prohibit Ng growth on agar plates.
For orientation: Agar diffusion results depend on both activity and mobility in agar.

The conditions of data set [2]: preclinical studies (ref. 36); cited from earlier work.
Data set [3] is described as follows: Phase I oncology study of AR-12. The format is in vivo, human. An excerpt: AR-12 was originally investigated in a Phase I oncology study (27), an IND (IND #103799) was previously filed with the Food and Drug Administration (FDA), and an Investigational Medicinal Product Dossier (IMPD) was filed with the Medicines and Healthcare Products Regulatory Agency (MHRA Reference: 35725/0001/001-0001 [EudraCT Number: 2009-014285-25]) in the United Kingdom, which enabled the Phase I study entitled: “A Phase I Study of AR-12 (2-Amino-N-[4-[5-(2-phenanthrenyl)-3-(trifluoromethyl)-1H-pyrazol-1-yl]phenyl]-acetamide) in Adult Patients With Advanced or Recurrent Solid Tumors or Lymphoma, for Which No Standard Therapy Is Available”. […] Thirty-five patients were enrolled at nine dose levels. With the original formulation tested, the recommended oncology Phase II dose was 800 mg twice daily.
The half-life in humans is long and is estimated to be approximately 60 hours. […] This is a favorable property for the treatment of Ng, which is, with rare exception, a mucosal pathogen. AR-12 is slowly released from the tissue back into the bloodstream and slowly excreted, which explains its long half-life.

The subject of data set [4] is Ng strains 1291 and (MDR) WHO-M. Nature of the data set: Modified gentamicin survival assay, drug added to established Ng infection of PEX cells. Type of data set: cell-based, Neisseria gonorrhoeae. The procedure:
Modified gentamicin survival assays were performed in which pex cells were challenged with our preferred laboratory Ng strain, 1291, or the MDR Ng strain, WHO-M (beta-lactam-, ciprofloxacin-, and rifampicin-resistant; plus a mtrR mutation that could effect resistance to other compounds (35)). Infections were allowed to proceed for 90 min to allow Ng to adhere to and invade PEX cells. Vehicle control, AR-12, ceftriaxone, or gentamicin was then added to established infections.
At the indicated times post-challenge, the infection medium was removed, the PEX cell monolayers were rinsed and lysed, and viable Ng were enumerated by counting CFUs after plating serial dilutions of the PEX cell lysates. The percentage of Ng that survived the test treatment was determined as a function of the infection inoculum. In this aspect, the units are colony forming units—percent survival calculated as: [(#CFU (x dilution factor)) divided by (number of bacteria used as the infection inoculum (˜typically 1×10^7 bacteria per ml))×100]. A significant reduction (at least about 300 fold) in viable Ng was observed following a 3-hour incubation with 10 μM AR-12 (FIG. 2A).
Concentrations of AR-12 tested are shown on the x-axis. “None” refers to vehicle control.

Data set [5] concerns Ng invasion of and survival within PEX cells. The experiment in a line: Gentamicin-survival assays: Ng invasion of and survival within PEX cells with estradiol, progesterone, Akt inhibitor. The format is cell-based, Neisseria gonorrhoeae. How it is done: Progesterone (Pg) augments gonococcal invasion of and survival within PEX cells. […] Therefore, to more closely mimic the luteal phase of the menses cycle, when Pg concentrations fluctuate between 3 nM and 30 nM, the effect of Pg on Ng invasion of and survival within PEX cells was evaluated using a gentamicin-survival assays with 0.4 nM of estradiol (E2) and variable concentrations of Pg (FIG. 1)
Further studies were conducted to determine if Pg augmented the ability of gonococci to survive intracellularly within PEX cells. Following gentamicin treatment (to kill extracellular bacteria), infected cell monolayers were either lysed (releasing the invasive Ng) and serial dilutions were plated, or they were re-incubated in antibiotic free medium for 1 or 3 hours longer before plating the PEX cell lysate and quantitating colony forming units. Akt inhibitor VII was included or omitted from these experiments.

[6] abbreviates: by 24 hours post-AR-12 treatment.

A word on the half-life: it is the time in which the quantity being followed falls by half.

The molecule `NCC(=O)Nc1ccc(-n2nc(C(F)(F)F)cc2-c2ccc3c(ccc4ccccc43)c2)cc1` [AR-12, 2-amino-N-(4-(5-(phenanthren-2-yl)-3-(trifluoromethyl)-1H-pyrazol-1-yl)phenyl)acetamide] gave a stability in data set [1] of at least 24 months. For the same molecule, in the data set on Ng, the “effectiveness against Ng on agar plates” value is “not effective”. Also, in data set [2], the “accumulation in tissues relative to blood level concentrations” value was “exceeding the blood level concentrations several fold” and the “blood brain barrier penetration” value is “rapid blood brain barrier penetration”. Further, the “dose limiting toxicities (DLT)” value in data set [3] (doses appropriate in the oncology setting, human) was “fatigue, dizziness, and skin rash”. For the same molecule, the half-life in data set [3] (human, blood, oral dosage form, Phase I study, estimated, read-out: half-life in humans (converted)) is about 60 h. Also, the safety profile entry in data set [3] (long-term oral exposures up to 33 weeks, phase I study) is recorded as “acceptable safety profile”. In addition, the “recommended oncology Phase II dose” value in data set [3] (original formulation, human) was 800 mg twice daily. In addition, the “reduction in viable Ng” value in data set [4] (10 μM AR-12, 3-hour incubation, Ng-infected PEX cells (FIG. 2A)) was “at least 300 fold”. In addition, in data set [4] (10 μM AR-12, 24 h (FIG. 2C)), the “viable Ng recovered” value was “no viable Ng were recovered”. The “reduction of the amount of viable Ng (CFU) compared to an untreated infection” value in data set [4] (10 μM AR-12, after about 6 hours (FIG. 2E)) is given as “at least 3 log”. Further, the “reduction of the amount of viable Ng (CFU) compared to an untreated infection” value in data set [4] (10 μM AR-12, after about 24 hours (FIG. 2E)) is reported as “at least 7 log”. In data set [4] (AR-12 treatment 6 h, Ng-infected PEX cells (FIG. 2B)), the “reduction in the number of viable Ng” value is given as “at least 600 fold”. Besides, in data set [4] (setting [6]), the “killing of Ng (bactericidal effect)” value stood at 100% and the “spontaneous resistance to AR-12” value was “no spontaneous resistance”.

Turning to `CC(=O)[C@H]1CC[C@H]2[C@@H]3CCC4=CC(=O)CC[C@]4(C)[C@H]3CC[C@]12C` [Pg, Progesterone], the “gonococcal invasion of PEX cells” value in data set [5] (0.4 nM estradiol, variable concentrations of Pg (FIG. 1A)) is recorded as “increased with increasing concentrations of Pg”. For the same molecule, in data set [5] (presence of Pg, 1 or 3 hours post-invasion (FIG. 1B)), the “ability of gonococci to invade, as well as survive within, PEX cells” value is listed as “enhanced”.

(Values after US10201526B2, “Compositions and methods for inhibiting the growth of neisseria gonorrhoeae” (Research Institute at Nationwide Children's Hospital, priority 2015, dated 2019).)
